The conditions of data set [1]: 96 h.
Description: Solubility in RPMI1640 culture medium at <30 uM incubated for 4 days by microscopic analysis
The next data set has as its target T1, Androgen receptor (Rattus norvegicus, UniProt P15207).
T1 sequence (P15207 whole entry): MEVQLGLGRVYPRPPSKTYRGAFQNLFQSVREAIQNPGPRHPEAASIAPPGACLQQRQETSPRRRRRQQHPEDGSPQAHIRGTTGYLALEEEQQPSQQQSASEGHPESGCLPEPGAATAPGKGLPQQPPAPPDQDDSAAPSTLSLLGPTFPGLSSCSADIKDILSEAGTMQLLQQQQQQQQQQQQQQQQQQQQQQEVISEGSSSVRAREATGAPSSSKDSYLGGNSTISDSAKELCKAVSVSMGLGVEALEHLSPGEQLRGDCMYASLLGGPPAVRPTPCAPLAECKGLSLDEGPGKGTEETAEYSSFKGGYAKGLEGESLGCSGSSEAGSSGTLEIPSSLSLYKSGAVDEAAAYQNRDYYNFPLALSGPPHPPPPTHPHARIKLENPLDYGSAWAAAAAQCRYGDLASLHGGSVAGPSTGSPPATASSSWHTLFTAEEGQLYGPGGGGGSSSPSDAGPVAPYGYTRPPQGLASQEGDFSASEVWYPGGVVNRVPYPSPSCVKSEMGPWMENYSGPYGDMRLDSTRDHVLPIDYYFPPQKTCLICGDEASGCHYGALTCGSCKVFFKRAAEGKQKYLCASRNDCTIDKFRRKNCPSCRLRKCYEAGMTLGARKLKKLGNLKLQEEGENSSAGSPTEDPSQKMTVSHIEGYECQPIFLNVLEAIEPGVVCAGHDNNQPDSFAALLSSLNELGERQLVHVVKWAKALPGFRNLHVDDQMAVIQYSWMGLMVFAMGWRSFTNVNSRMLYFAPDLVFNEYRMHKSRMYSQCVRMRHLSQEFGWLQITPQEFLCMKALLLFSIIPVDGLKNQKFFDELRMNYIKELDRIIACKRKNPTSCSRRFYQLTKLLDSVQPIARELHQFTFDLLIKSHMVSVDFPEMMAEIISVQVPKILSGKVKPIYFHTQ
Put plainly: (§1) Antagonist activity at rat androgen receptor fused with DNA-binding domain of GAL4 expressed in AR-UAS-bla GripTite 293 cells assessed as inhibition of R1881-induced receptor activation preincubated for 30 mins followed by R1881 addition measured after 16 to 24 hrs by betalactamase reporter gene assay. The data set is classed as cell-based. (In general: In a reporter assay the amount or activity of a reporter protein is the signal.)

Data set [2] addresses T2, Androgen receptor (Rattus norvegicus) (UniProt P15207).
T2 sequence (whole entry): T1 sequence (P15207 whole entry)
The data set is described as §1. The data set is classed as cell-based.

In another data set the test system is CWR22R. Put plainly: Antiproliferative activity against human 22Rv1 cells after 96 hrs by propidium iodide staining based fluorescence 2D monolayer assay. The data set is classed as functional, cell-based. The note with it: 22Rv1, 96 h.
Another data set deals with DU-145. As to the kind of experiment: Antiproliferative activity against human DU145 cells after 96 hrs by propidium iodide staining based fluorescence 2D monolayer assay. The class given is functional, cell-based. The note with it: DU-145, 96 h.
A further data set has as its system LNCaP. As to the kind of experiment: Antiproliferative activity against human LNCAP cells after 96 hrs by propidium iodide staining based fluorescence 2D monolayer assay. The class given is functional, cell-based.
For data set [3] the following is noted: 33000 µM.
Description: Solubility in 100% DMSO at 33 mM at -20 degC
The next data set has as its system VCaP. Put plainly: Antiproliferative activity against human VCaP cells after 96 hrs by propidium iodide staining based fluorescence 2D monolayer assay. The class given is functional, cell-based.

The IC50 is the concentration that inhibits the measured activity by half. Regarding `CC1(C)C(=O)N(c2ccc(C(F)(F)F)cc2)C(=O)N1c1ccc(C#N)cc1C(F)(F)F`, the solubility result in data set [1] and in data set [3] was “Soluble” each time. Besides, the IC50 at Androgen receptor came to 0.402 µM; in the data set on CWR22R, 100 µM; in the data set on DU-145 it was 100 µM; with LNCaP, 8.36 µM; with VCaP, 100 µM. In data set [2], the inhibition result was “Dose-dependent effect”.
For `CC1(C)C(=O)N(c2cccc(C(F)(F)F)c2)C(=O)N1c1cccc(C(F)(F)F)c1`, the solubility result in data set [1] and in data set [3] was “Soluble” in each case. Also, the IC50 at Androgen receptor stood at 0.123 µM; in the data set on CWR22R, 60.7 µM; in the data set with DU-145, 100 µM; in the data set with LNCaP, 5.61 µM; with VCaP it was 75.7 µM. Moreover, the inhibition entry in data set [2] was “Dose-dependent effect”.
On to `CC(O)(COc1ccccc1OC(F)(F)F)C(=O)Nc1ccc([N+](=O)[O-])c(C(F)(F)F)c1` (stereo not given), for which the solubility result in data set [1] and in data set [3] was “Soluble” each time. For the same compound, the half-maximal inhibitory concentration (IC50) at Androgen receptor was determined as 0.198 µM; in the data set with CWR22R it was 6.6 µM; in the data set on DU-145 it was 9.88 µM; with LNCaP it was 7.04 µM; in the data set on VCaP it was 9.61 µM. Further, the inhibition result in data set [2] is “Dose-dependent effect”.
In the case of `CC(O)(CSc1ccccc1C(F)(F)F)C(=O)Nc1ccc([N+](=O)[O-])cc1C(F)(F)F` (stereo not given), the solubility entry in data set [1] and in data set [3] was “Soluble” each time. The IC50 on Androgen receptor worked out at 0.332 µM; in the data set with CWR22R it was 12 µM; with DU-145, 17.5 µM; in the data set with LNCaP, 11.7 µM; in the data set on VCaP, 12.8 µM. The inhibition result in data set [2] is “Dose-dependent effect”.
`CC(O)(COc1ccc(C#N)cc1C(F)(F)F)C(=O)Nc1ccc(C#N)cc1C(F)(F)F` (stereo not given): the solubility result in data set [1] and in data set [3] was “Soluble” each time. Besides, the IC50 at Androgen receptor amounted to 0.736 µM; in the data set on CWR22R, 18.4 µM; in the data set on DU-145, 27.5 µM; with LNCaP it was 9.39 µM; in the data set on VCaP it was 17.7 µM. In addition, the inhibition result in data set [2] is “Dose-dependent effect”.
On to `CC(O)(CSc1ccc(F)c(F)c1)C(=O)Nc1ccc([N+](=O)[O-])cc1C(F)(F)F` (stereo not given), for which the solubility entry in data set [1] and in data set [3] was “Soluble” throughout. Further, the IC50 came out at 83.6 µM in the data set on CWR22R, 100 µM in the data set on DU-145, 83 µM in the data set with LNCaP and 100 µM with VCaP.
For `CC(O)(CS(=O)(=O)c1ccccc1C(F)(F)F)C(=O)Nc1ccc([N+](=O)[O-])cc1C(F)(F)F` (stereo not given), the solubility entry in data set [1] and in data set [3] was “Soluble” in each case. Moreover, the 50% inhibitory concentration (IC50) came to 28.3 µM in the data set on CWR22R, 46.1 µM in the data set with DU-145, 20.5 µM with LNCaP and 38.6 µM with VCaP.
Regarding `CC(O)(CS(=O)(=O)c1ccccc1C(F)(F)F)C(=O)Nc1ccc(C#N)cc1C(F)(F)F` (stereo not given), the solubility result in data set [1] and in data set [3] was “Soluble” each time. In addition, the IC50 is 98.8 µM in the data set with CWR22R, 100 µM in the data set with DU-145, 74 µM with LNCaP and 100 µM in the data set on VCaP.
For the compound `CC1(C)C(=O)N(c2cccc(C(F)(F)F)c2)C(=O)N1c1ccc(C(F)(F)F)cc1`, the solubility result in data set [1] and in data set [3] was “Soluble” each time. Moreover, the 50% inhibitory concentration (IC50) with CWR22R turned out to be 92.5 µM; in the data set with DU-145 it was 100 µM; in the data set on LNCaP, 16.6 µM; in the data set with VCaP, 100 µM.
On to `CC1(C)C(=O)N(c2cccc(C(F)(F)F)c2)C(=O)N1c1ccccc1C(F)(F)F`, for which the solubility entry in data set [1] and in data set [3] was “Soluble” throughout. Further, the IC50 is 100 µM with CWR22R, 100 µM in the data set on DU-145, 28.3 µM in the data set on LNCaP and 100 µM in the data set with VCaP.
For the compound `CC(O)(COc1ccc(OC(F)(F)F)cc1)C(=O)Nc1ccc(C#N)c(C(F)(F)F)c1` (stereo not given), the solubility entry in data set [1] and in data set [3] was “Soluble” in each case. Also, the IC50 in the data set with CWR22R stood at 17.2 µM; with DU-145, 18.4 µM; with LNCaP, 13.6 µM; in the data set with VCaP it was 17.6 µM.
As to `CC(O)(COc1ccc(F)cc1F)C(=O)Nc1ccc(C#N)c(C(F)(F)F)c1` (stereo not given), the solubility result in data set [1] and in data set [3] was “Soluble” in each case. For the same compound, the IC50 turned out to be 34 µM with CWR22R, 44.3 µM with DU-145, 37.3 µM in the data set on LNCaP and 38.7 µM in the data set with VCaP.
Consider `CC(O)(CS(=O)(=O)c1cccc(C(F)(F)F)c1)C(=O)Nc1ccc(C#N)cc1C(F)(F)F` (stereo not given), for which the solubility entry in data set [1] and in data set [3] was “Soluble” in each case. Further, the IC50 in the data set with CWR22R was 34.4 µM; in the data set on DU-145, 45.9 µM; with LNCaP, 32.1 µM; with VCaP, 44.9 µM.
Take `CC(O)(COc1cccc(C(F)(F)F)c1)C(=O)Nc1ccc([N+](=O)[O-])cc1C(F)(F)F` (stereo not given): the solubility entry in data set [1] and in data set [3] was “Soluble” throughout. The IC50 in the data set on CWR22R came to 15.2 µM; with DU-145 it was 18.1 µM; in the data set on LNCaP it was 12.9 µM; in the data set on VCaP, 19.3 µM.
As to `CC(O)(CS(=O)(=O)c1cccc(OC(F)(F)F)c1)C(=O)Nc1ccc([N+](=O)[O-])cc1C(F)(F)F` (stereo not given), the solubility result in data set [1] and in data set [3] was “Soluble” in each case. For the same compound, the IC50 with CWR22R amounted to 18 µM; in the data set on DU-145, 27.7 µM; with LNCaP it was 12.2 µM; in the data set on VCaP, 20.3 µM.
With `CC(O)(COc1ccccc1C(F)(F)F)C(=O)Nc1ccc(C(F)(F)F)cc1` (stereo not given), the solubility result in data set [1] and in data set [3] was “Soluble” throughout. Moreover, the concentration for half-maximal inhibition (IC50) in the data set on CWR22R was 6.42 µM; in the data set on DU-145, 26.4 µM; in the data set on LNCaP, 6.98 µM; with VCaP, 11.5 µM.
Regarding `CC(O)(COc1ccccc1OC(F)(F)F)C(=O)Nc1ccc(C#N)cc1C(F)(F)F` (stereo not given), the solubility entry in data set [1] and in data set [3] was “Soluble” throughout. In addition, the IC50 is 16.7 µM in the data set with CWR22R, 27.1 µM in the data set on DU-145, 33.8 µM in the data set with LNCaP and 43.9 µM in the data set with VCaP.
As to `CC(O)(COc1cccc(C(F)(F)F)c1)C(=O)Nc1ccc([N+](=O)[O-])c(C(F)(F)F)c1` (stereo not given), the solubility entry in data set [1] and in data set [3] was “Soluble” in each case. The IC50 in the data set with CWR22R is 8.58 µM; in the data set with DU-145, 10 µM; in the data set with LNCaP, 9.91 µM; in the data set with VCaP, 10.3 µM.
Take `CC(O)(CSc1ccccc1C(F)(F)F)C(=O)Nc1ccc(C(F)(F)F)cc1` (stereo not given): the solubility entry in data set [1] and in data set [3] was “Soluble” throughout. In addition, the IC50 came out at 5.2 µM with CWR22R, 8.76 µM in the data set on DU-145, 7.22 µM with LNCaP and 5.86 µM in the data set on VCaP.
With `CC(O)(COc1ccc(F)cc1F)C(=O)Nc1ccc(C#N)cc1C(F)(F)F` (stereo not given), the solubility result in data set [1] and in data set [3] was “Soluble” each time. The IC50 was found to be 60.9 µM with CWR22R, 99.5 µM with DU-145, 30.6 µM in the data set with LNCaP and 50.6 µM with VCaP.

For the origin of these results see ChEMBL document CHEMBL4477199, “Design and synthesis of novel bicalutamide and enzalutamide derivatives as antiproliferative agents for the treatment of prostate cancer” (Eur J Med Chem, 2016).
